Measured values from US20250098679A1, “HERBICIDAL PYRIDONE DERIVATIVES” (SYNGENTA CROP PROTECTION AG, priority 2021, published 2025).

Assays:
Format in all cases: in vivo
Conditions in all cases: evaluated after 13 days
Setaria faberi (SETFA) [1] = test: Pre-emergence Test, Setaria faberi (SETFA)
[2] = tested on: Echinochloa crus-galli (ECHCG); test: Pre-emergence Test, Echinochloa crus-galli (ECHCG)
Zea mays (ZEAMX) [3] = test: Pre-emergence Test, Zea mays (ZEAMX)
[4] = tested on: Ipomoea hederacea (IPOHE); test: Pre-emergence Test, Ipomoea hederacea (IPOHE)
[5] = tested on: Amaranthus palmeri (AMAPA); test: Pre-emergence Test, Amaranthus palmeri (AMAPA)
[6] = tested on: Amaranthus retoflexus (AMARE); test: Pre-emergence Test, Amaranthus retoflexus (AMARE)
Setaria faberi (SETFA) [7] = test: Post-emergence Test, Setaria faberi (SETFA); set-up: key to percentage damage caused to the plant, SETFA (five-point scale): 5=81-100%, 4=61-80%, 3=41-60%, 2=21-40%, 1=0-20% damage
Procedure, shortened: (§1)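 Percent plant damage was rated 13 days post-application on a 1–5 scale (1=0-20%, 5=81-100%). Application used an aqueous acetone (50:50)/0.5% Tween 20 spray, normally 1000 g/ha, with controlled glasshouse conditions (24/16 °C, 14 h light, 65% humidity).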

[8] = tested on: Echinochloa crus-galli (ECHCG); test: Post-emergence Test, Echinochloa crus-galli (ECHCG); set-up: key to percentage damage caused to the plant, ECHCG (five-point scale): 5=81-100%, 4=61-80%, 3=41-60%, 2=21-40%, 1=0-20% damage
Procedure, shortened: as §1

Zea mays (ZEAMX) [9] = test: Post-emergence Test, Zea mays (ZEAMX); set-up: key to percentage damage caused to the plant, ZEAMX (five-point scale): 5=81-100%, 4=61-80%, 3=41-60%, 2=21-40%, 1=0-20% damage
Procedure, shortened: as §1

[10] = tested on: Ipomoea hederacea (IPOHE); test: Post-emergence Test, Ipomoea hederacea (IPOHE); set-up: key to percentage damage caused to the plant, IPOHE (five-point scale): 5=81-100%, 4=61-80%, 3=41-60%, 2=21-40%, 1=0-20% damage
Procedure, shortened: as §1

[11] = tested on: Amaranthus palmeri (AMAPA); test: Post-emergence Test, Amaranthus palmeri (AMAPA); set-up: key: 5=81-100%, 4=61-80%, 3=41-60%, 2=21-40%, 1=0-20% damage
Procedure, shortened: as §1

[12] = tested on: Amaranthus retoflexus (AMARE); test: Post-emergence Test, Amaranthus retoflexus (AMARE); set-up: key to percentage damage caused to the plant, AMARE (five-point scale): 5=81-100%, 4=61-80%, 3=41-60%, 2=21-40%, 1=0-20% damage
Procedure, shortened: as §1

Structure (SMILES)	Pre-emergence Test SETFA, percentage damage caused to the plant (five-point scale) (Setaria faberi (SETFA) [1]; 1000 g/ha)	Pre-emergence Test ECHCG, percentage damage caused to the plant (five-point scale) ([2]; 1000 g/ha)	Pre-emergence Test ZEAMX, percentage damage caused to the plant (five-point scale) (Zea mays (ZEAMX) [3]; 1000 g/ha)	Pre-emergence Test IPOHE, percentage damage caused to the plant (five-point scale) ([4]; 1000 g/ha)	Pre-emergence Test AMAPA, percentage damage caused to the plant (five-point scale) ([5]; 1000 g/ha)	Pre-emergence Test AMARE, percentage damage caused to the plant (five-point scale) ([6]; 1000 g/ha)	percentage damage caused to the plant, SETFA (five-point scale) (Setaria faberi (SETFA) [7]; 250 g/Ha)	percentage damage caused to the plant, SETFA (five-point scale) (Setaria faberi (SETFA) [7]; 1000 g/ha)	percentage damage caused to the plant, ECHCG (five-point scale) ([8]; 250 g/Ha)	percentage damage caused to the plant, ECHCG (five-point scale) ([8]; 1000 g/ha)	percentage damage caused to the plant, ZEAMX (five-point scale) (Zea mays (ZEAMX) [9]; 250 g/Ha)	percentage damage caused to the plant, ZEAMX (five-point scale) (Zea mays (ZEAMX) [9]; 1000 g/ha)	percentage damage caused to the plant, IPOHE (five-point scale) ([10]; 250 g/Ha)	percentage damage caused to the plant, IPOHE (five-point scale) ([10]; 1000 g/ha)	percentage damage caused to the plant, AMAPA (five-point scale) ([11]; 250 g/Ha)	percentage damage caused to the plant, AMAPA (five-point scale) ([11]; 1000 g/ha)	percentage damage caused to the plant, AMARE (five-point scale) ([12]; 250 g/Ha)	percentage damage caused to the plant, AMARE (five-point scale) ([12]; 1000 g/ha)	Pre-emergence Test SETFA, percentage damage caused to the plant (five-point scale) (Setaria faberi (SETFA) [1]; 250 g/Ha (*))	Pre-emergence Test ECHCG, percentage damage caused to the plant (five-point scale) ([2]; 250 g/Ha (*))	also measured
CCOc1cc(C)nn1Cc1cc(=O)c(C(=O)O)c(-c2ccc(Cl)c(Cl)c2)n1CC [Compound 149, 2-(3,4-dichlorophenyl)-6-[(5-ethoxy-3-methyl-pyrazol-1-yl)methyl]-1-ethyl-4-oxo-pyridine-3-carboxylic acid]	4 (4=61-80%)	1 (1=0-20%)	0	0	3 (3=41-60%)	1 (1=0-20%)	1 (1=0-20%)	3 (3=41-60%)	1 (1=0-20%)	4 (4=61-80%)	0	2 (2=21-40%)	1 (1=0-20%)	2 (2=21-40%)	0	1 (1=0-20%)	0	2 (2=21-40%)	–	–	–
CCn1c(Cn2ccc(C(F)(F)F)n2)cc(=O)c(C(=O)O)c1-c1ccc(Cl)c(F)c1 [Compound 30, 2-(4-chloro-3-fluoro-phenyl)-1-ethyl-4-oxo-6-[[3-(trifluoromethyl)pyrazol-1-yl]methyl]pyridine-3-carboxylic acid]	5 (5=81-100%)	5 (5=81-100%)	5 (5=81-100%)	4 (4=61-80%)	1 (1=0-20%)	0	4 (4=61-80%)	5 (5=81-100%)	3 (3=41-60%)	4 (4=61-80%)	3 (3=41-60%)	4 (4=61-80%)	4 (4=61-80%)	2 (2=21-40%)	0	2 (2=21-40%)	1 (1=0-20%)	4 (4=61-80%)	–	–	–
CCn1c(Cn2nccc2Cl)cc(=O)c(C(=O)O)c1-c1ccc(Cl)c(Cl)c1 [Compound 80, 6-[(5-chloropyrazol-1-yl)methyl]-2-(3,4-dichlorophenyl)-1-ethyl-4-oxo-pyridine-3-carboxylic acid]	5 (5=81-100%)	5 (5=81-100%)	0	3 (3=41-60%)	1 (1=0-20%)	0	3 (3=41-60%)	4 (4=61-80%)	3 (3=41-60%)	4 (4=61-80%)	1 (1=0-20%)	3 (3=41-60%)	4 (4=61-80%)	3 (3=41-60%)	2 (2=21-40%)	2 (2=21-40%)	2 (2=21-40%)	2 (2=21-40%)	4 (4=61-80%)	3 (3=41-60%)	Pre-emergence Test ZEAMX, percentage damage caused to the plant (five-point scale) (Zea mays (ZEAMX) [3]; 250 g/Ha (*)): 0; Pre-emergence Test IPOHE, percentage damage caused to the plant (five-point scale) ([4]; 250 g/Ha (*)): 2 (2=21-40%); Pre-emergence Test AMAPA, percentage damage caused to the plant (five-point scale) ([5]; 250 g/Ha (*)): 1 (1=0-20%); Pre-emergence Test AMARE, percentage damage caused to the plant (five-point scale) ([6]; 250 g/Ha (*)): 0
CCn1c(Cn2nc(C(=O)OC)cc2C(=O)OC)cc(=O)c(C(=O)O)c1-c1ccc(Cl)c(Cl)c1 [Compound 115, 6-[[3,5-bis(methoxycarbonyl)pyrazol-1-yl]methyl]-2-(3,4-dichlorophenyl)-1-ethyl-4-oxo-pyridine-3-carboxylic acid]	1 (1=0-20%)	0	0	0	1 (1=0-20%)	0	0	0	0	0	0	1 (1=0-20%)	0	0	1 (1=0-20%)	2 (2=21-40%)	1 (1=0-20%)	0	–	–	–
Cn1c(Cn2ccc(C(F)(F)F)n2)cc(=O)c(C(=O)O)c1-c1ccc(C#N)c(Cl)c1 [Compound 117, 2-(3-chloro-4-cyano-phenyl)-1-methyl-4-oxo-6-[[3-(trifluoromethyl)pyrazol-1-yl]methyl]pyridine-3-carboxylic acid]	5 (5=81-100%)	4 (4=61-80%)	1 (1=0-20%)	2 (2=21-40%)	2 (2=21-40%)	2 (2=21-40%)	3 (3=41-60%)	4 (4=61-80%)	3 (3=41-60%)	4 (4=61-80%)	1 (1=0-20%)	4 (4=61-80%)	3 (3=41-60%)	3 (3=41-60%)	0	2 (2=21-40%)	0	1 (1=0-20%)	4 (4=61-80%)	3 (3=41-60%)	Pre-emergence Test ZEAMX, percentage damage caused to the plant (five-point scale) (Zea mays (ZEAMX) [3]; 250 g/Ha (*)): 0; Pre-emergence Test IPOHE, percentage damage caused to the plant (five-point scale) ([4]; 250 g/Ha (*)): 0; Pre-emergence Test AMAPA, percentage damage caused to the plant (five-point scale) ([5]; 250 g/Ha (*)): 1 (1=0-20%); Pre-emergence Test AMARE, percentage damage caused to the plant (five-point scale) ([6]; 250 g/Ha (*)): 0
